Laboratory results as given in patent US11207431B2, “HDAC6 inhibitors and imaging agents” (The General Hospital Corporation, priority 2017, dated 2021).

What was measured:
HDAC2 [1] = molecular target: T1, HDAC2 (Homo sapiens (Human), UniProt Q92769); test: IC50 assay, BPS Biosciences fluorescence assay; type: biochemical; details: IC50 measured by BPS
HDAC2 [2] = molecular target: T1, HDAC2; test: IC50 assay by Nanosyn (Caliper microfluidics mobility shift detection); type: biochemical; details: IC50 measured by Nanosyn
Description: (§1) IC50 measurements were conducted by BPS Biosciences (Table 1) or by Nanosyn (Table 1A) with an established fluorescence assay. […] A=Martinostat (Caliper (microfluidics mobility shift detection) by Nanosyn (same run, duplicates));

HDAC10 [3] = molecular target: T2, HDAC10 (Homo sapiens (Human), UniProt Q969S8); test: as above; type: biochemical; details: IC50 measured by Nanosyn
Description: as §1
Target sequence in this assay (Q969S8 whole entry): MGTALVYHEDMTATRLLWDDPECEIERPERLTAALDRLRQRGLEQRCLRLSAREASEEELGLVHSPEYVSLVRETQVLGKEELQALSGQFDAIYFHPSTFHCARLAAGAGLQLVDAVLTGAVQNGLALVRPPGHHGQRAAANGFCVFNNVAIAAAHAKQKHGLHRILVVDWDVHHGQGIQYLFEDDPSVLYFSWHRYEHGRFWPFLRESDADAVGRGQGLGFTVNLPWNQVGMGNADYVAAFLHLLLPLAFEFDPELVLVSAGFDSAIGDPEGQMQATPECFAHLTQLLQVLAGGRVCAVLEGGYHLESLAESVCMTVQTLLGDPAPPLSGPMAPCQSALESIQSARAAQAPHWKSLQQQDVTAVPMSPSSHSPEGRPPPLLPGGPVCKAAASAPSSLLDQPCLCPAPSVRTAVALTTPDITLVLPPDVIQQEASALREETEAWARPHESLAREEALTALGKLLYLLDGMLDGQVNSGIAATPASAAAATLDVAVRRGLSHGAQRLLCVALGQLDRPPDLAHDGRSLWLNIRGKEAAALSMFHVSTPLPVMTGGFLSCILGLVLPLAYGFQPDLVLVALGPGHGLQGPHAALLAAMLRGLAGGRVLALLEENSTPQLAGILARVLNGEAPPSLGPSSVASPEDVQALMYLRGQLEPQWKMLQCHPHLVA

HDAC3 [4] = molecular target: T3, HDAC3 (Homo sapiens (Human), UniProt O15379); test: as above; type: biochemical; details: IC50 measured by Nanosyn
T3 sequence (O15379 whole entry): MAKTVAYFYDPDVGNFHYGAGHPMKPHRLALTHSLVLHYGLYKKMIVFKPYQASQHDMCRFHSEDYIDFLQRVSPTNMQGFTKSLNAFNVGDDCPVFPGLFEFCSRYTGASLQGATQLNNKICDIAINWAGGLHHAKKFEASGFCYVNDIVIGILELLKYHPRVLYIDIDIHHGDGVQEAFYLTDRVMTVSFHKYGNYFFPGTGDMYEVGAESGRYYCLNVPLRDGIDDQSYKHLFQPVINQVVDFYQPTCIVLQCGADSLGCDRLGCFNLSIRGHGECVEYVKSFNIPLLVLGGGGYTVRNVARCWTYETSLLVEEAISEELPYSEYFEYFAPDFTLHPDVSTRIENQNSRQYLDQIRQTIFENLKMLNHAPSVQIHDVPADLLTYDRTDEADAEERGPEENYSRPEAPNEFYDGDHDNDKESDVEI
T3 sequence (Q9Y618 395-489 partner): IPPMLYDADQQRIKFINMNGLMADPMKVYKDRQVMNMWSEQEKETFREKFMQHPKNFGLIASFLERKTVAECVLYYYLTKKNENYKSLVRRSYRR
Description: as §1

HDAC1 [5] = molecular target: T4, HDAC1 (Homo sapiens (Human), UniProt Q13547); test: as above; type: biochemical; details: IC50 measured by Nanosyn
T4 sequence (Q13547 whole entry): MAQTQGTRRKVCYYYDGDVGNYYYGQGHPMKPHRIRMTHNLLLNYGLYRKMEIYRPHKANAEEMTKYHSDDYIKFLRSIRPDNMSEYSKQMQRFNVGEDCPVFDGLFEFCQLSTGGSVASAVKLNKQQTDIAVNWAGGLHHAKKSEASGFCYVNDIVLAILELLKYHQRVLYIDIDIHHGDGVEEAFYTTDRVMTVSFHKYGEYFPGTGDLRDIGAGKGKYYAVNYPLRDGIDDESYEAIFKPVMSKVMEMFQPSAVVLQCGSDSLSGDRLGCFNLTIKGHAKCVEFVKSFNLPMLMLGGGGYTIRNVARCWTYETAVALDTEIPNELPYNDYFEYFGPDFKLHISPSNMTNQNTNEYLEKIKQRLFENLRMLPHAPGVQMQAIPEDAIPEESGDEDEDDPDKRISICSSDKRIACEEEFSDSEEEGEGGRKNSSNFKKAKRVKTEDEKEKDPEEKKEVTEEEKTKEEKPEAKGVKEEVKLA
Description: as §1

[6] = Brain penetrance comparison; details: in vivo
in vitro [7] = details: mouse, microsomes
in vivo = details: C57BL/6, mouse
HDAC3 [8] = molecular target: T3, HDAC3; test: IC50 assay, BPS Biosciences fluorescence assay; type: biochemical; details: IC50 measured by BPS
PET/CT imaging in rats = type: in vivo, Sprague-Dawley rats
Description: 8 male Sprague-Dawley rats (Charles River Laboratories) were used for PET imaging. […] For intravenous administration, a catheter with an extension line was placed in a lateral tail vein. Each animal received a bolus injection of either vehicle (1:1:8 DMSO/Tween80/saline) or blocking agent in solution (1 mg/kg, 1 mg/mL in 1:1:8 DMSO/Tween80/saline) immediately prior to injection of the radiotracer.
After injection of a radiotracer bolus ([…] Example 2) a 90 min dynamic PET scan was acquired in pairs for all animals. PET scans were performed on a GammaMedica Triumph PET/CT/SPECT scanner, corrected for attenuation with a μ-map derived from the corresponding CT image, which was acquired immediately following the PET scan. The dynamic PET data was binned into 38 timeframes (8×15 s, 8×1 min, 10×2 min, 12×5) and reconstructed individually via an iterative MLEM (maximum likelihood expectation maximization) algorithm in 16 iterations.
PET images were to the CT image acquired from the same animal using AMIDE Data sets were cropped and all further image analysis was conducted using PMOD 3.3 (PMOD Technologies, Zurich, Switzerland). For maximum consistency, the data were coregistered to the Schiffer Px Rat rat brain template and data was derived from a whole brain VOI (volumes of interest) for time activity curves.

HDAC1 [9] = molecular target: T4, HDAC1; test: IC50 assay, BPS Biosciences fluorescence assay; type: biochemical; details: IC50 measured by BPS
HDAC10 [10] = molecular target: T2, HDAC10; test: IC50 assay, BPS Biosciences fluorescence assay; type: biochemical
Target sequence in this assay (Q969S8 whole entry): as the sequence (Q969S8 whole entry) above

HDAC6 [11] = molecular target: HDAC6 (Rattus norvegicus (Rat), UniProt A0A8I6GM68); test: Autoradiography competition with radiolabeled Example 2 on rat brain slices; type: binding, Sprague-Dawley rat; details: blocking compound at 1 μM
Description: Sagittal slices of Sprague-Dawley rat brains were sectioned (10 μm) with a cryostat (Thermo Scientific HM550) and mounted onto ColorFrost Plus microscope slides (Fisher Scientific 12-550-18) and stored at −20° C. […] After 15 min, 50 μCi of the radiolabeled compound of Example 2 was added to each bath. After 15 minutes, all slides were washed by dipping 10× into buffer and subsequently submerged in 50 mL baths of buffer at 4° C. for 5 minutes. The slides were dried at 35° C. in a vacuum chamber. A phosphorus screen (Perkin Elmer 7001723) was exposed with the slides for 45 minutes and subsequently imaged with a Cyclone Plus Storage Phosphor (Perkin Elmer) detector. ImageJ was used to apply a Gaussian blur (3.0 radius) smoothing and a lookup table (Royal) with equivalent thresholds for brightness was applied. Raw intensity values from gray and white matter were quantified with the ImageJ measurement tool.

[12] = male, C57BL/6, mouse, in vivo, po, 5 mg/kg
in vitro [13] = details: rat, microsomes
Hepatocyte stability = details: human, hepatocytes
Microsome stability = details: human, microsomes
[14] = system: DiscoverX Safety47 panel: 24 GPCRs, 2 nuclear hormone receptors, 3 neurotransmitter transporters, 8 ion channels, 4 kinases, 6 other enzymes; test: Safety (DiscoverX Safety47 Panel); details: at 10 μM; 78 assays
[15] = system: Human iPSC-derived neural progenitor cells; test: Acetylation level assay (Western blot); type: cell-based; details: 6 h at 37° C.
HDAC6 [16] = molecular target: HDAC6 (Homo sapiens (Human), UniProt Q9UBN7); details: read-out: HDAC6 IC50; comparison compound C, source not stated
HDAC2 [17] = molecular target: T1, HDAC2; test: IC50 values of comparison compounds B-F (Table 1B); type: biochemical; details: comparison compound C, source not stated
From the text: (§2) [drawing 62] (see e.g., WO 2015/058106; Fluorescent-intensity-based enzymatic assay, multiple runs; duplicates);

HDAC4 = HDAC4 (Homo sapiens (Human), UniProt P56524); test: IC50 values of comparison compounds B-F (Table 1B); type: biochemical; details: comparison compound C, source not stated
From the text: as §2

HDAC10 [18] = molecular target: T2, HDAC10; test: IC50 values of comparison compounds B-F (Table 1B); type: biochemical; details: comparison compound C, source not stated
From the text: as §2
Target sequence in this assay (Q969S8 whole entry, species assumed): as the sequence (Q969S8 whole entry) above

HDAC3 [19] = molecular target: T3, HDAC3; test: IC50 values of comparison compounds B-F (Table 1B); type: biochemical; details: comparison compound C, source not stated
From the text: as §2

HDAC8 = HDAC8 (Homo sapiens (Human), UniProt Q9BY41); test: IC50 values of comparison compounds B-F (Table 1B); type: biochemical; details: comparison compound C, source not stated
Chain of HDAC8 (Q9BY41 whole entry): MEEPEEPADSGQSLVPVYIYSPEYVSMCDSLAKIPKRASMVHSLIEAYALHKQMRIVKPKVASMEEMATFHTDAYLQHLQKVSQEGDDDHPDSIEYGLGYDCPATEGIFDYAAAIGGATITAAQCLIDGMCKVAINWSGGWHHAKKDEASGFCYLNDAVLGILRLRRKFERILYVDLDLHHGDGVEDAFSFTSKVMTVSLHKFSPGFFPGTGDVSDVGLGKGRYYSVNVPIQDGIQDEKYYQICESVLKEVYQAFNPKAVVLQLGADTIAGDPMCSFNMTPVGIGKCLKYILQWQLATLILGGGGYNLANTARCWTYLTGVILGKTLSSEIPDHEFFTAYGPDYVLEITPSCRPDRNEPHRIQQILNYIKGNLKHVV
From the text: as §2

HDAC11 = HDAC11 (Homo sapiens (Human), UniProt Q96DB2); test: IC50 values of comparison compounds B-F (Table 1B); type: biochemical; details: comparison compound C, source not stated
Chain of HDAC11 (Q96DB2 whole entry, species assumed): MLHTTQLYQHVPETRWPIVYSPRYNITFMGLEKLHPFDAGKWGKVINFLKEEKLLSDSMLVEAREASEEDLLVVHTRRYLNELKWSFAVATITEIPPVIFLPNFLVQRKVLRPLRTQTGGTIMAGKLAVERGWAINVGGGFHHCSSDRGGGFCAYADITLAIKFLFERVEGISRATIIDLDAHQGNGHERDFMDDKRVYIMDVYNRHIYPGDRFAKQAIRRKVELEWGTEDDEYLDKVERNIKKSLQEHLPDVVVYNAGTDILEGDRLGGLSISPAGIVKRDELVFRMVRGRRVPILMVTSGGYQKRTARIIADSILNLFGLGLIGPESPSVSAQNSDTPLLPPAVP
From the text: as §2

HDAC1 [20] = molecular target: T4, HDAC1; test: IC50 values of comparison compounds B-F (Table 1B); type: biochemical; details: comparison compound C, source not stated
From the text: as §2

HDAC9 = HDAC9 (Homo sapiens (Human), UniProt Q9UKV0); test: IC50 values of comparison compounds B-F (Table 1B); type: biochemical; details: comparison compound C, source not stated
From the text: as §2

HDAC5 = HDAC5 (Homo sapiens (Human), UniProt Q9UQL6); test: IC50 values of comparison compounds B-F (Table 1B); type: biochemical; details: comparison compound C, source not stated
Chain of HDAC5 (Q9UQL6 whole entry): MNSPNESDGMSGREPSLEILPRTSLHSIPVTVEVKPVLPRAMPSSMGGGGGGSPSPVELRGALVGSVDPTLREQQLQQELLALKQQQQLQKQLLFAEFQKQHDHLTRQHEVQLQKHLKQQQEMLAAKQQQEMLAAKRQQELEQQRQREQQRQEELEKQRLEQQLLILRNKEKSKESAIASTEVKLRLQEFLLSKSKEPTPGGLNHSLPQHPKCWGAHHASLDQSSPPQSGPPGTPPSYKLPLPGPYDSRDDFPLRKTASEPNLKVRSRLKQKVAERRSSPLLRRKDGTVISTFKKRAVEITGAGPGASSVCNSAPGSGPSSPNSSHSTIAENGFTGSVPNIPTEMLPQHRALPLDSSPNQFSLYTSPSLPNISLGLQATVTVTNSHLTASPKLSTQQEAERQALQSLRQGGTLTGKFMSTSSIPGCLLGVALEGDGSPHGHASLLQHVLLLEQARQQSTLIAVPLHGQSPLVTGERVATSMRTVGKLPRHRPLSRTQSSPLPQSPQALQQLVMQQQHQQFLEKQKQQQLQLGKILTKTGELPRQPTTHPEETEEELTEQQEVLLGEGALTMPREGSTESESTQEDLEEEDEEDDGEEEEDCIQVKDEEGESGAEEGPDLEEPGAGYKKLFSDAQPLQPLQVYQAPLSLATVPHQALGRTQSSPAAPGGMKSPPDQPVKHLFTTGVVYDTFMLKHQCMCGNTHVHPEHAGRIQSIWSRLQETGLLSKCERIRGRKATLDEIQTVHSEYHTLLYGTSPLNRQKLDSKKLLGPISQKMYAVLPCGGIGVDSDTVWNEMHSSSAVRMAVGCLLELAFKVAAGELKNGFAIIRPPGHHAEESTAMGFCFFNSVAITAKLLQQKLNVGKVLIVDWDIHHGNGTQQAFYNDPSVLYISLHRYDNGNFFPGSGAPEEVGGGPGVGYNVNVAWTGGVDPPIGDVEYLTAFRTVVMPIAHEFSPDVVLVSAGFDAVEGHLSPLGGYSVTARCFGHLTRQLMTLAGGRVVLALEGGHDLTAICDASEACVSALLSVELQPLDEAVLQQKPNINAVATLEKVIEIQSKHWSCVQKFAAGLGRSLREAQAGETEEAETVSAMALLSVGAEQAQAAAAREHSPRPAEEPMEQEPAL
From the text: as §2

T1 sequence (Q92769 whole entry): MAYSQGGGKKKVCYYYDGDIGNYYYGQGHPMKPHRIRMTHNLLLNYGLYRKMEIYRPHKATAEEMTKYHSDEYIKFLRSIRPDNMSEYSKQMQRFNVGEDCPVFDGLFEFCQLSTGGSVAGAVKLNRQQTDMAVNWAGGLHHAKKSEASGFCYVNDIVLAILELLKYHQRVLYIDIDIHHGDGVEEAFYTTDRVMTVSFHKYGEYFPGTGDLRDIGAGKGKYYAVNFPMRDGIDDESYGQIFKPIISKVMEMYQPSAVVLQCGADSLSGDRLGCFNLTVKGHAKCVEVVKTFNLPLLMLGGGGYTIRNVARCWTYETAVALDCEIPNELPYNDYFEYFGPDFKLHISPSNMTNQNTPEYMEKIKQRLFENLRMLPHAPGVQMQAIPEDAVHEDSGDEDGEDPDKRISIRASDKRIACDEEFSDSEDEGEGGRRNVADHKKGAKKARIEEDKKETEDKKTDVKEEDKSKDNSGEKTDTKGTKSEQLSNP

CN(Cc1ccc(C(=O)NO)cc1F)CC12CC3CC(CC(C3)C1)C2 [Example 1, 4-(((((3s)-Adamantan-1-yl)methyl)(methyl)amino)methyl)-3-fluoro-N-hydroxybenzamide]
IC50 (HDAC2 [1]): > 1 µM
IC50 (HDAC2 [2]): > 1 µM
IC50 (HDAC10 [3]): > 1 µM
IC50 (HDAC3 [4]): > 1 µM
IC50 (HDAC1 [5]): > 1 µM
Brain-penetrant? [6]: +++
half-life (in vitro [7]): < 10 min
bioavailability (in vivo; po): 10%
half-life (in vivo; male, ip, 5 mg/kg): 4.8 min
half-life (in vivo; male, po, 5 mg/kg): 15 min
Cmax (in vivo; male, po, 5 mg/kg, Cmax): 460 nM
IC50 (HDAC3 [8]): > 1 µM
effect on time activity curve of radiolabeled Example 2 (PET/CT imaging in rats; 1 mg/kg, 30-minutes post radiotracer administration): clear deflection of the time activity curve
effect on brain uptake of radiolabeled Example 2 (PET/CT imaging in rats; non-radioactive compound at 1 mg/kg): blocking of brain uptake
IC50 (HDAC1 [9]): > 1 µM
IC50 (HDAC10 [10]; BPS Biosciences, unit mM printed in cell): > 1 mM
IC50 (HDAC10 [10]; IC50 measured by BPS): > 0.001 mM
inhibition at 1000 µM (HDAC10 [10]; read-out: HDAC10 Percentage Inhibition): 21%
binding of radiolabeled Example 2 to rat brain slices (HDAC6 [11]): significantly reduced
T1/2 [12]: 15 min
half-life (in vitro [13]): < 10 min
half-life (Hepatocyte stability): 20 min
half-life (Microsome stability): 19 min
Safety (DiscoverX Safety47 Panel) [14]: No effect at 10 μM
Histone acetylation (H3K9 and H4K12) ([15]; 10 μM): remained unaltered
amount of cellular acetyl-α-Tubulin ([15]; ACY1215 5 μM, other compounds 10 μM): increased

CN(c1ncc(C(=O)NO)cn1)C12CC3CC(CC(C3)C1)C2 [C]
IC50 (HDAC6 [16]): 0.033 µM
IC50 (HDAC2 [17]): 0.065 µM
IC50 (HDAC4): 0.034 µM
IC50 (HDAC10 [18]): 0.025 µM
IC50 (HDAC3 [19]): 0.024 µM
IC50 (HDAC8): 0.364 µM
IC50 (HDAC11): 3.6 µM
IC50 (HDAC1 [20]): 0.02 µM
IC50 (HDAC9): 0.052 µM
IC50 (HDAC5): 0.121 µM
